Measurements: publication PMC12040169 (PLOS Biology, 2025)

Assay: in vitro
Details: human, hela cells, % viability

| Compound | viability at 28.5 h, 10 µM | viability at 28.5 h, 10 µM (bulk resorufin, single well) |
| --- | --- | --- |
| COc1ccc(NC(=O)CSc2nc3c(N)ncnc3[nH]2)cc1 [CBK218441] | 91.4% |  |
| Cc1cccc(OCCn2cncc2-c2cnn(C)c2)c1C [CBK281497] | 99.5% |  |
| Nc1nc(OCCN2CCCC2=O)cnc1-c1cc(Cl)cc(Cl)c1 [CBK145199] | 89.3% |  |
| O=C(c1cccnc1)N1CCCC(n2cnc3cc(F)ccc32)C1 (stereo not shown) [CBK284474] | 85.6% |  |
| CNC(=O)C1(Cc2ccc(-c3cccs3)cc2)CCN(C(=O)C2CCCCC2)CC1 [CBK285793] | 88% |  |
| C=CCn1c(S)nnc1CCSCc1ccccc1 [CBK268849] | 95.1% |  |
| CC(NC(=O)N1CCSCC1)c1cccc(N2CCCC2)c1 (stereo not shown) [CBK305230] | 92% |  |
| Cc1nc(-c2ccccc2)sc1CNC(=O)C1CC1C (stereo not shown) [CBK092369] | 97% |  |
| FC(F)(F)c1ccnc(Sc2nccs2)n1 [CBK093771] | 91.9% |  |
| O=C(CN(c1ccc(I)cc1)S(=O)(=O)c1ccccc1)NCC1CCCO1 (stereo not shown) [CBK266278] | 101% |  |
| O=C(c1cnc[nH]1)N1CCn2nc(C(O)Cc3ccccc3)cc2C1 (stereo not shown) [CBK307558] | 109% |  |
| CC(=O)Nc1ccc(N2CC(C(=O)O)CC2=O)cc1 (stereo not shown) [CBK287149] | 87.1% |  |
| Cc1cccc(C)c1NC(=O)c1nccnc1C(=O)O [CBK260915] | 97% |  |
| CN(C)CCn1c(=O)oc2ccc(NC(=O)C3CCCO3)cc21 (stereo not shown) [CBK304913] | 93.9% |  |
| CCc1ccc(CNC(=O)Cn2nnc(-c3ccc(CNC4CCOCC4)cc3)n2)cc1 [CBK161029C] | 89.8% |  |
| CC(=O)c1ccc(N2CCN(S(=O)(=O)c3ccc(O)c(C(=O)O)c3)CC2)cc1 [CBK296961] | 94% |  |
| COc1ccc(S(=O)(=O)NCCCN2CCOCC2)c(Cl)c1Cl [CBK269792] | 95.3% |  |
| CS(=O)(=O)Nc1nc2ccc(S(C)(=O)=O)cc2s1 [CBK092166] | 100% |  |
| Cc1c(C(C)NCC2CCN(C)CC2)cnn1-c1ccc(C#N)cc1 (stereo not shown) [CBK304058] | 97.3% |  |
| CN1C[C@@H](NS(C)(=O)=O)C[C@H]1c1nc(-c2ccc3ccccc3c2)no1 [CBK288859] | 106% |  |
| c1coc(-c2ccc3c(c2)COC2(CCN(CCc4ccc5c(c4)OCO5)CC2)O3)c1 [CBK061057] | 90.4% |  |
| c1ccc2c(c1)CCC2Oc1cncc(N2CCNCC2)n1 (stereo not shown) [CBK200005G] | 91% |  |

| Compound | viability at 28.5 h, 10 µM | viability at 28.5 h, 10 µM (bulk resorufin, single well) |
| --- | --- | --- |
| CCCCNS(=O)(=O)c1ccc(OCC(=O)O)cc1 [CBK268550] | 99.1% |  |
| Cc1c(-c2cc(C(F)F)n3nc(CCC(=O)O)nc3n2)cnn1C [CBK286888] | 85.7% |  |
| O=C(COc1ccc(S(=O)(=O)N2CCOCC2)cc1)NCc1ccccc1 [CBK268533] | 98.6% |  |
| O=C(NC(c1ccccc1)c1ccsc1)C1CCN(C/C=C/c2ccccc2)CC1 (stereo not shown) [CBK148449] | 89.4% |  |
| Oc1ccc(Br)cc1C(c1c(O)nc(S)nc1O)c1c(O)nc(S)nc1O [CBK265367] |  | 103% |
| Cc1ccc(C(=O)N2CCC[C@@H]3NC(=O)c4ccccc4OCC/C=C/C[C@@H]32)c(O)n1 [CBK292080] | 98.2% |  |
| COc1cc(CNc2ccc3[nH]c(=O)[nH]c3c2)cc(Br)c1OCC(=O)NC(C)(C)C [CBK266596] | 57% |  |
| CCOc1ccc(-c2cncc(N3CCN(C(=O)c4ccco4)CC3)n2)cc1 [CBK065860] | 109% |  |
| COc1cccc(NC(=O)CN2CCN(c3nc4ccc([N+](=O)[O-])cc4s3)CC2)c1 [CBK264089] | 93.7% |  |
| Cc1cc2n(n1)[C@@H](C(F)F)C[C@@H](C1CCN(C(=O)C(C)C)CC1)N2 [CBK284725] | 88% |  |
| O=c1[nH]c2ccccc2n1CCCN1CCC(Oc2cncc(OCC3COc4ccccc4O3)n2)C1 (stereo not shown) [CBK084380] | 94.4% |  |
| Nc1ncnc2c1ncn2[C@@H]1O[C@H](CCl)[C@H](O)C1O (stereo partly shown) [CBK201252] | 98.8% |  |
| Cn1cc(-c2nc(C(=O)N3CCN(c4ncccn4)CC3)cs2)cn1 [CBK305626] | 91% |  |
| CC(C)(C)OC(=O)N1CCC(COc2ccc(-c3ccc(S(C)(=O)=O)cc3)nc2)CC1 [CBK167839] | 108% |  |
| Cc1cc(C)nc(NC(=O)NS(=O)(=O)Nc2ccccc2Cl)n1 [CBK260912] | 102% |  |
| COc1ncccc1C(=O)Nc1ccc(C)nc1C [CBK200292] | 90.6% |  |
| CCCCOc1ccc(C=Cc2nc3sc(C(=O)O)c(C)c3c(=O)[nH]2)cc1 [CBK297524] | 86.5% |  |
| COc1ccc(-c2ccc(/C=N/N=C3\NC(=O)C(CC(=O)O)S3)o2)c([N+](=O)[O-])c1 (stereo not shown) [CBK264516] | 102% |  |
| N#C/C(=C\c1ccccc1O)C(=O)Nc1sc2c(c1C(N)=O)CCCC2 [CBK263644] | 101% |  |
| O=C(c1ccccc1)c1ccccc1-n1nccn1 [CBK013849] | 99% |  |
| Cc1ccc(OCC(O)CNC(=O)c2ccccc2C(=O)O)cc1 (stereo not shown) [CBK264778] | 116% |  |
| CCC(C)(C)C1CCc2c(sc(NC(=O)CN3CCOCC3)c2C#N)C1 (stereo not shown) [CBK270048] | 89.4% |  |

| Compound | viability at 28.5 h, 10 µM | viability at 28.5 h, 10 µM (bulk resorufin, single well) |
| --- | --- | --- |
| O=C(CSc1nc2ccccc2[nH]1)Nc1cccc(C(=O)O)c1 [CBK263225] | 105% |  |
| CN1CCN(C(=O)c2ccc(-c3ccco3)nc2N(C)C)CC1 [CBK106121] | 94.4% |  |
| COC(=O)c1c(NC(=O)C(=O)NCc2ccccn2)sc2c1CCCC2 [CBK269505] | 95.2% |  |
| COc1ccc(C(=O)N2CCc3ccccc32)c(OC)n1 [CBK200281] | 106% |  |
| S=C1C=C(c2ccccc2)Nc2ccccc2N1 [CBK288438] | 87.2% |  |
| CNCC(=O)N[C@H]1CCN2C(=O)c3ccc(Cl)cc3NC(=O)[C@@H]2C1 [CBK289566] | 83.6% |  |
| Cc1nn2c(N)ncnc2c1-c1ccc(Cl)cc1 [CBK287880] | 68.8% |  |
| O=S1(=O)CCN(Cc2cnn(-c3cncnc3)n2)CC1 [CBK112878] | 100% |  |
| CCc1csc(CCNc2ccc(-c3nc(C4CC4)no3)cn2)n1 [CBK306608] | 91.3% |  |
| CC(=O)Nc1ccc(C(=O)Nc2ccc(-c3nc4ccccc4[nH]3)cc2)cc1 [CBK262857] | 84.9% |  |
| Cc1cc(/C=C2\NC(=O)NC2=O)c(C)n1-c1ccc(OCc2ccccc2F)cc1 [CBK264842] | 88.3% |  |
| CC(=O)Nc1ccc(S(=O)(=O)NC2(C(F)(F)F)C(=O)Nc3c2c(=O)[nH]c(=S)n3C2CCCCC2)cc1 (stereo not shown) [CBK268683] | 97.2% |  |
| CCC(=O)N1CCN(CCNC=C2C(=O)CC(c3cccs3)CC2=O)CC1 (stereo not shown) [CBK264817] | 97% |  |
| Cc1ccc2nc(NC(=O)COc3ccccc3)sc2c1 [CBK287335] | 91% |  |
| CS(=O)(=O)Nc1ccc(CC#N)cc1 [CBK038145] | 114% |  |
| CC1=CCCN(C(=O)C23CCOCC2CN(c2ncc(F)cn2)C3)C1 (stereo not shown) [CBK304263] | 87.3% |  |
| O=C(CC1S\C(=N/N=C/C=C/c2ccccc2)N=C1O)Nc1ccc(C(=O)O)cc1 (stereo not shown) [CBK263711] | 101% |  |
| c1ccc(CN2CCC[C@H]2c2nc(-c3ccc(-c4cncnc4)nc3)no2)cc1 [CBK288891] | 87.5% |  |
| Cc1ccc(O)c(Nc2ncnc3ccc(Br)cc23)c1 [CBK269028C] | 98.3% |  |
| O=C1CCN([C@H]2C[C@@H](O)[C@@H](CO)O2)C(=O)N1 [CBK201288] | 93.8% |  |
| Cc1ccnn1CCC(=O)NC1(c2ccc(F)cc2)CCCC1 [CBK283600] | 115% |  |
| CC(C)c1cc(C(=O)N2CC(N3CCOCC3)C2)nc2ncnn12 [CBK306572] | 86.9% |  |

| Compound | viability at 28.5 h, 10 µM | viability at 28.5 h, 10 µM (bulk resorufin, single well) |
| --- | --- | --- |
| CCOc1ccc(Nc2nc(-c3ccc(C)cc3C)c(CC(=O)O)s2)cc1 [CBK264187] | 62.5% |  |
| CN1CCN(C(=O)c2sccc2NS(=O)(=O)c2ccc3ccccc3c2)CC1 [CBK004631] | 91.7% |  |
| Cc1cc(NC(=O)CN2CCC(CNc3ncccc3C#N)C2)on1 (stereo not shown) [CBK306127] | 87.8% |  |
| O=[N+]([O-])c1cnc(NCCCn2ccnc2)c([N+](=O)[O-])c1 [CBK262511] | 94.4% |  |
| CCCCOc1cccc(C(=O)Nc2ccc(-c3nc4ccccc4o3)c(O)c2)c1 [CBK263435] | 101% |  |
| Cc1ccccc1-n1c(SC(C)C)nc2sc3c(c2c1=O)CC(C)(C)OC3 [CBK091874] | 91.2% |  |
| CCc1ccc(OCC(O)Cn2nnc(-c3ccc(CN4CCC(C)CC4)cc3)n2)cc1 (stereo not shown) [CBK161437T] | 111% |  |
| Cc1onc(-c2ccccc2)c1CNC(=O)Cn1cc(C)c(=O)[nH]c1=O [CBK144094] | 87.6% |  |
| O=C1CC(C(=O)Nc2ccccc2)n2cnnc2N1 (stereo not shown) [CBK287980] | 112% |  |
| CCN(CC)C(=O)CN1CCC(Oc2nccnc2OCCN2CCOCC2)CC1 [CBK082928] | 93.4% |  |
| O=C(Nc1ccccc1C(=O)O)c1cccc(NC(=O)c2ccco2)c1 [CBK299774] | 88.1% |  |
| Cc1ccc(C)c(OCCNS(=O)(=O)c2cc([N+](=O)[O-])ccc2C)c1 [CBK267393] | 87.1% |  |
| CCOC(=O)C(NC(=O)c1cn(C)cn1)c1cccc(C)c1C (stereo not shown) [CBK304098] | 107% |  |
| COc1ccc(-c2nc(NC(=O)C3CCC(OC)CC3)cnc2-c2ccc(F)cc2)cc1 (stereo not shown) [CBK037004] | 88.4% |  |
| Nc1cc2cccnc2nc1-c1ccncc1 [CBK067601] | 96.5% |  |
| CC(=O)C1=C(O)C(=O)N(CC(=O)O)C1c1ccc(Br)cc1 (stereo not shown) [CBK286712] | 89.9% |  |
| CCCCC(=O)N(C)c1c(CC)nc2c(OCc3ccc(C#N)cc3)cccn12 [CBK147779] | 94.6% |  |
| FC(F)(F)c1cccc(CN2CCC(N3CCCCC3)CC2)c1 [CBK261855] | 90.1% |  |
| N=c1c2c(-c3ccccc3)c(-c3ccccc3)oc2ncn1CCCN1CCOCC1 [CBK268484] | 92.6% |  |
| CC1=C[C@@H](CO)[C@H](C(C)C)C[C@H]1CC(=O)N1CCN(CCO)CC1 [CBK289217] | 85.7% |  |
| CC(=O)Nc1ccc(/C(C)=N/Nc2nc(N3CCCC3)nc(N3CCCC3)n2)cc1 [CBK021877] | 89.3% |  |
| CCc1nc2n(n1)CC(NC1CCCc3ccccc31)CC2 (stereo not shown) [CBK304837] | 95.6% |  |
